Reference: patent US11802120B2, “Fused cyclic urea derivatives as CRHR2 antagonist” (RaQualia Pharma Inc., priority 2018, dated 2023)
pIC50: −log10 of the molar value.

Molecular target: T1, human CRHR2-alpha (Homo sapiens, UniProt Q13324)
T1 sequence (Q13324 1-411): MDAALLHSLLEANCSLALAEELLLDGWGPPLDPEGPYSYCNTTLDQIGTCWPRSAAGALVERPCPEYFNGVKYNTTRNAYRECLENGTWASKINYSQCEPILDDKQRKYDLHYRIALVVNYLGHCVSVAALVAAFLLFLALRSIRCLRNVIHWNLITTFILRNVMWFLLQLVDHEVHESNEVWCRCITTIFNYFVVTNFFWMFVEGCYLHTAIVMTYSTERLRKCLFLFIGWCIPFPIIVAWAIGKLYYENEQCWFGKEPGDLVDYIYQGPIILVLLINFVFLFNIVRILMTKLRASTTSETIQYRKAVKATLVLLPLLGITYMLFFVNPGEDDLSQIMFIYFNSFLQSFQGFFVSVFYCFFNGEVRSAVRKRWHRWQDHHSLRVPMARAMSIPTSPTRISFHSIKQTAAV
Assay: cAMP functional assay for human CRHR2 (LANCE Ultra cAMP, TR-FRET)
Assay type: cell-based
Conditions: CHO-K1 cells expressing human CRHR2-alpha, agonist human urocortin2 at EC80, cAMP; read-out: IC50 against CRHR2
Method: cAMP functional assay for human CRHR1 and CRHR2
The ability of the compounds of this invention to inhibit either CRHR2 or CRHR1 is assessed by 3′,5′-cyclic adenosine monophosphate (cAMP) production in cells using the LANCE Ultra cAMP assay kit (ParkinElmer), which are designed based on the homogeneous time-resolved fluorescence resonance energy transfer (TR-FRET) immunoassay.
CHO-K1 (Chinese hamster ovary) cells stably expressing either human CRHR2-alpha (DiscoveRX, Cat. 95-0048C2) or human CRHR1-beta (DiscoveRX, Cat. 95-0047C2) are grown in HAM's F12 media supplemented with 10% fetal bovine serum (FBS), 100 units/mL penicillin, 100 microg/mL hygromycin and 0.5 microg/mL geneticin at 37° C. in 5% CO2 humidified incubator to 80% confluence. After 7 hours starvation treatment in culture media containing 0.1% FBS, the cells are washed with Hanks balanced salt solution (HBSS) and cryopreserved.
For cAMP assay, frozen cells are thawed and washed with HBSS, followed by resuspended in assay buffer (HBSS containing 0.1% bovine serum albumin, 0.5 mM isobutylmethylxanthine and 5 mM Hepes, pH 7.4) at the appropriate concentration for the assay. The cell suspensions are plated on 384-well microplates (Greiner Bio-One) at a density of 4,000 cells per well. After preincubating the cells with various concentrations of the compounds for 30 min at 25° C., an assay buffer containing EC80 concentration of each agonist is added and the cells are incubated for 30 min at 25° C. Human urocortin2 (Peptide Institute) and CRF (Peptide Institute) are used as agonists for CRHR2 and CRHR1, respectively. For the termination of assay, europium-labeled cAMP tracer and ULight (registered trademark) dye labeled cAMP antibodies, both prepared with Lance-Ultra cAMP detection reagent (Perkin Elmer) are added in the plate and incubate for 60 min at 25° C. After incubation, TR-FRET signal is detected by EnVision plate reader (PerkinElmer). The IC50 values for compounds are calculated from dose-response curves by fitting the percent inhibition using XLfit (ID Business Solutions).

pIC50, > 6.52:
Cc1ncc(Cl)cc1C(=O)N[C@H]1CC[C@H](Cn2c(=O)n(-c3ccc(-c4ccccc4)nc3)c3ccccc32)CC1 [Example 89, 5-chloro-2-methyl-N-((1r,4r)-4-((2-oxo-3-(6-phenylpyridin-3-yl)-2,3-dihydro-1H-benzo[d]imidazol-1-yl)methyl)cyclohexyl)nicotinamide]
Cc1ccc(-n2c(=O)n(C[C@H]3CC[C@H](NC(=O)c4cc(Cl)cnc4C)CC3)c3ccccc32)c(C#N)c1 [Example 247, 5-chloro-N-((1r,4r)-4-((3-(2-cyano-4-methylphenyl)-2-oxo-2,3-dihydro-1H-benzo[d]imidazol-1-yl)methyl)cyclo-hexyl)-2-methylnicotinamide]
Cc1ncc(Cl)cc1C(=O)N[C@H]1CC[C@H](Cn2c(=O)n(-c3cncc(-c4cnco4)c3)c3ccccc32)CC1 [Example 485, 5-chloro-2-methyl-N-((1r,4r)-4-((3-(5-(oxazol-5-yl)pyridin-3-yl)-2-oxo-2,3-dihydro-1H-benzo[d]imidazol-1-yl)methyl)cyclohexyl)nicotinamide]
Cc1ncc(Cl)cc1C(=O)N[C@H]1CC[C@H](Cn2c(=O)n(-c3cnc4ccccc4c3)c3cccnc32)CC1 [Example 359, 5-chloro-2-methyl-N-((1r,4r)-4-((2-oxo-1-(quinolin-3-yl)-1H-imidazo[4,5-b]pyridin-3(2H)-yl)methyl)cyclohexyl) nicotinamide]
O=C(N[C@H]1CC[C@H](Cn2c(=O)n(-c3ccc(N4CCCC4=O)nc3)c3ccccc32)CC1)c1cc(Cl)cnc1C(F)F [Example 498, 5-chloro-2-(difluoromethyl)-N-((1r,4r)-4-((2-oxo-3-(6-(2-oxopyrrolidin-1-yl)pyridin-3-yl)-2,3-dihydro-1H-benzo[d]imidazol-1-yl)methyl)cyclohexyl)nicotinamide]
Cc1ncc(Cl)cc1C(=O)N[C@H]1CC[C@H](Cn2c(=O)n(-c3cnc4c(c3)CCN4)c3ccccc32)CC1 [Example 152, 5-chloro-N-((1r,4r)-4-((3-(2,3-dihydro-1H-pyrrolo[2,3-b]pyridin-5-yl)-2-oxo-2,3-dihydro-1H-benzo[d]imidazol-1-yl)methyl)cyclohexyl)-2-methylnicotinamide]
Cc1ncc(Cl)cc1C(=O)N[C@H]1CC[C@H](Cn2c(=O)n(-c3cccnc3C(F)(F)F)c3ccccc32)CC1 [Example 318, 5-chloro-2-methyl-N-((1r,4r)-4-((2-oxo-3-(2-(trifluoro-methyl)pyridin-3-yl)-2,3-dihydro-1H-benzo[d]imidazol-1-yl)methyl)cyclohexyl) nicotinamide]
O=C(N[C@H]1CC[C@H](Cn2c(=O)n(-c3cccc(N4CCCC4=O)n3)c3ccccc32)CC1)c1cc(Cl)cnc1C(F)F [Example 776, 5-chloro-2-(difluoromethyl)-N-((1r,4r)-4-((2-oxo-3-(6-(2-oxo-pyrrolidin-1-yl)pyridin-2-yl)-2,3-dihydro-1H-benzo[d]imidazol-1-yl)methyl)cyclo-hexyl)nicotinamide]
Cc1ncc(Cl)cc1C(=O)N[C@H]1CC[C@H](Cn2c(=O)n(-c3ccc4c(c3)n(C)c(=O)n4C)c3ccccc32)CC1 [Example 169, 5-chloro-N-((1r,4r)-4-((1′,3′-dimethyl-2,2′-dioxo-2′,3′-dihydro-1′H-[1,5′-bibenzo [d]imidazol]-3(2H)-yl)methyl)cyclohexyl)-2-methylnicotinamide]
Cc1ncc(Cl)cc1C(=O)N[C@H]1CC[C@H](Cn2c(=O)n(-c3ccc4ncccc4c3)c3cccnc32)CC1 [Example 358, 5-chloro-2-methyl-N-((1r,4r)-4-((2-oxo-1-(quinolin-6-yl)-1H-imidazo[4,5-b]pyridin-3(2H)-yl)methyl)cyclohexyl) nicotinamide]
CNc1ccc(-n2c(=O)n(C[C@H]3CC[C@H](NC(=O)c4cc(Cl)cnc4C)CC3)c3c(F)cccc32)cn1 [Example 668, 5-chloro-N-((1r,4r)-4-((7-fluoro-3-(6-(methylamino)pyridin-3-yl)-2-oxo-2,3-dihydro-1H-benzo[d]imidazol-1-yl)methyl)cyclo-hexyl)-2-methylnicotinamide]
Cc1ncc(Cl)cc1C(=O)N[C@H]1CC[C@H](Cn2c(=O)n(-c3ccnc(-c4ccn(C)n4)c3)c3ccccc32)CC1 [Example 655, 5-chloro-2-methyl-N-((1r,4r)-4-((3-(2-(1-methyl-1H-pyrazol-3-yl)pyridin-4-yl)-2-oxo-2,3-dihydro-1H-benzo[d]imidazol-1-yl)methyl)cyclohexyl)nicotinamide]
CNc1cc(-n2c(=O)n(C[C@H]3CC[C@H](NC(=O)c4cc(Cl)cnc4C(F)F)CC3)c3ccccc32)ccn1 [Example 661, 5-chloro-2-(difluoromethyl)-N-((1r,4r)-4-((3-(2-(methylamino)pyridin-4-yl)-2-oxo-2,3-dihydro-1H-benzo[d]imidazol-1-yl)methyl)cyclohexyl)nicotinamide]
CC(=O)N1CCc2cc(-n3c(=O)n(C[C@H]4CC[C@H](NC(=O)c5cc(Cl)cnc5C)CC4)c4ccccc43)ccc2C1 [Example 218, N-((1r,4r)-4-((3-(2-acetyl-1,2,3,4-tetrahydroisoquinolin-6-yl)-2-oxo-2,3-dihydro-1H-benzo[d]imidazol-1-yl)methyl)cyclohexyl)-5-chloro-2-methylnicotinamide]
O=C(N[C@H]1CC[C@H](Cn2c(=O)n(-c3ccc4nccnc4c3)c3ccccc32)CC1)c1cc(Cl)cnc1C(F)F [Example 495, 5-chloro-2-(difluoromethyl)-N-((1r,4r)-4-((2-oxo-3-(quinoxalin-6-yl)-2,3-dihydro-1H-benzo[d]imidazol-1-yl)methyl)cyclo-hexyl)nicotinamide]
Cn1ncc2c(-n3c(=O)n(C[C@H]4CC[C@H](NC(=O)c5cc(Cl)cnc5C(F)F)CC4)c4ccccc43)cccc21 [Example 374, 5-chloro-2-(difluoromethyl)-N-((1r,4r)-4-((3-(1-methyl-1H-indazol-4-yl)-2-oxo-2,3-dihydro-1H-benzo[d]imidazol-1-yl)methyl)cyclohexyl) nicotinamide]
Cc1ncc(Cl)cc1C(=O)N[C@H]1CC[C@H](Cn2c(=O)n(-c3ccc(-c4cncs4)cc3)c3ccccc32)CC1 [Example 580, 5-chloro-2-methyl-N-((1r,4r)-4-((2-oxo-3-(4-(thiazol-5-yl)phenyl)-2,3-dihydro-1H-benzo[d]imidazol-1-yl)methyl)cyclohexyl)nicotinamide]
COCCNc1ccc(-n2c(=O)n(C[C@H]3CC[C@H](NC(=O)c4cc(Cl)cnc4C)CC3)c3ccccc32)cn1 [Example 593, 5-chloro-N-((1r,4r)-4-((3-(6-((2-methoxyethyl)amino)pyridin-3-yl)-2-oxo-2,3-dihydro-1H-benzo[d]imidazol-1-yl)methyl)cyclo-hexyl)-2-methylnicotinamide]
Cn1cnc2ccc(-n3c(=O)n(C[C@H]4CC[C@H](NC(=O)c5cc(Cl)cnc5C(F)F)CC4)c4ccccc43)cc21 [Example 406, 5-chloro-2-(difluoromethyl)-N-((1r,4r)-4-((3′-methyl-2-oxo-3′H-[1,5′-bibenzo[d]imidazol]-3(2H)-yl)methyl)cyclohexyl) nicotinamide]
CNC(=O)c1ccc(-n2c(=O)n(C[C@H]3CC[C@H](NC(=O)c4cc(Cl)ccc4OC(F)F)CC3)c3ccccc32)cn1 [Example 533, 5-(3-(((1r,4r)-4-(5-chloro-2-(difluoromethoxy)benzamido)cyclohexyl)methyl)-2-oxo-2,3-dihydro-1H-benzo[d]imidazol-1-yl)-N-methylpicolinamide]
O=C(N[C@H]1CC[C@H](Cn2c(=O)n(-c3cnc4ccccc4c3)c3ccccc32)CC1)c1cc(Cl)cnc1C(F)(F)F [Example 352, 5-chloro-N-((1r,4r)-4-((2-oxo-3-(quinolin-3-yl)-2,3-dihydro-1H-benzo[d]imidazol-1-yl)methyl)cyclo-hexyl)-2-(trifluoromethyl) nicotinamide]
